We go through 16 compounds from patent US10947227B2, “Tricyclic heterocyclic compounds as sting activators” (Incyte Corporation, priority 2018, dated 2021).

The subject of this experiment is IRF3 activation in THP-1 Dual Cells. The experiment in a line: IRF3 activation assay in THP-1 Dual Cells (QUANTI-Blue readout). It counts as cell-based. To be noted: Homo sapiens, THP1-Dual, 24 h. On the procedure: THP-1 Dual Cells (Invivogen) were maintained in RPMI1640 medium with addition of 10% FBS, 100 μg/ml zeocin, 10 μg/ml blasticidin. Cells were added in a 96-well flat bottom assay plate at 100,000 per well in 100 μL complete RPMI medium. Test compounds were prepared by serial dilution in complete RPMI medium and 100 μL test compounds were transferred to each corresponding well. The assay plate was incubated at 37° C., 5% CO2 for 24 hours. After the overnight incubation, 20 μL of the culture supernatants were collected, followed by addition of 180 μL of QUANTI-Blue (Invivogen) to assess IRF3 activity. The amount of IRF3 activation was assessed by reading the absorbance at 620-655 nm with a microplate reader 2 hours later. The culture supernatant from the untreated THP-1 cells was used as the negative control. To determine the NF-κB activation, another 20 μL of culture supernatant were transferred to a 96-well white plate, followed by addition of 50 μL of Quanti-Luc™ assay solution (Invivogen). The amount of NF-κB activation induced by the test compounds were determined by the luminescence above the untreated control. EC50 determination was performed by fitting the curve of percent control activity versus the log of the compound concentration using the GraphPad Prism 6.0 software.

SMILES strings stand for the structures.

For the compound `CCn1nc(C)cc1C(=O)Nc1nc2cc(C(N)=O)cc(OCCCO)c2n1C/C=C/Cn1c2ccc(C(N)=O)cc2c2cnc(-c3cc(C)nn3CC)nc21` [Example 18, (E)-9-(4-(5-carbamoyl-2-(1-ethyl-3-methyl-1H-pyrazole-5-carboxamido)-7-(3-hydroxypropoxy)-1H-benzo[d]imidazol-1-yl)but-2-en-1-yl)-2-(1-ethyl-3-methyl-1H-pyrazol-5-yl)-9H-pyrimido[4,5-b]indole-6-carboxamide], the EC50 is under 200 nM (Table 1, 24 hours incubation) and under 50 nM (Table 2, 24 hours incubation).

For the compound `CCn1nc(C)cc1C(=O)Nc1nc2cc(C(N)=O)cc(OCCCOC(=O)c3cc(C)nn3CC)c2n1C/C=C/Cn1c2nc(-c3cc(C)nn3CC)ncc2c2cc(C(N)=O)cc(OCCCN3CCOCC3)c21` [Example 19, (E)-3-((5-carbamoyl-1-(4-(6-carbamoyl-2-(1-ethyl-3-methyl-1H-pyrazol-5-yl)-8-(3-morpholinopropoxy)-9H-pyrimido[4,5-b]indol-9-yl)but-2-en-1-yl)-2-(1-ethyl-3-methyl-1H-pyrazole-5-carboxamido)-1H-benzo[d]imidazol-7-yl)oxy)propyl 1-ethyl-3-methyl-1H-pyrazole-5-carboxylate], the concentration giving a half-maximal response (EC50) runs as follows: (Table 1, 24 hours incubation) under 200 nM; (Table 2, 24 hours incubation) under 50 nM.

Take `CCn1nc(C)cc1C(=O)Nc1nc2cc(C(N)=O)cc(OCCCO)c2n1C/C=C/Cn1c2nc(-c3cc(C)nn3CC)ncc2c2cc(C(N)=O)cc(OCCCN3CCOCC3)c21` [Example 20, (E)-9-(4-(5-carbamoyl-2-(1-ethyl-3-methyl-1H-pyrazole-5-carboxamido)-7-(3-hydroxypropoxy)-1H-benzo[d]imidazol-1-yl)but-2-en-1-yl)-2-(1-ethyl-3-methyl-1H-pyrazol-5-yl)-8-(3-morpholinopropoxy)-9H-pyrimido[4,5-b]indole-6-arboxamide]: the EC50 was under 200 nM (Table 1, 24 hours incubation) and under 50 nM (Table 2, 24 hours incubation).

As for `CCn1nc(C)cc1C(=O)Nc1nc2cc(C(N)=O)cc(OCCCOC(=O)c3cc(C)nn3CC)c2n1C/C=C/Cn1c2nc(-c3cc(C)nn3CC)ncc2c2cc(C(N)=O)cc(OCCCOC)c21` [Example 21, (E)-3-((5-carbamoyl-1-(4-(6-carbamoyl-2-(1-ethyl-3-methyl-1H-pyrazol-5-yl)-8-(3-methoxypropoxy)-9H-pyrimido[4,5-b]indol-9-yl)but-2-en-1-yl)-2-(1-ethyl-3-methyl-1H-pyrazole-5-carboxamido)-1H-benzo[d]imidazol-7-yl)oxy)propyl 1-ethyl-3-methyl-1H-pyrazole-5-carboxylate], the concentration for a half-maximal effect (EC50) is, setting by setting: (Table 1, 24 hours incubation) under 200 nM; (Table 2, 24 hours incubation) under 50 nM.

For the compound `CCn1nc(C)cc1C(=O)Nc1nc2cc(C(N)=O)cc(OCCCO)c2n1C/C=C/Cn1c2nc(-c3cc(C)nn3CC)ncc2c2cc(C(N)=O)cc(OCCCOC)c21` [Example 22, (E)-9-(4-(5-carbamoyl-2-(1-ethyl-3-methyl-1H-pyrazole-5-carboxamido)-7-(3-hydroxypropoxy)-1H-benzo[d]imidazol-1-yl)but-2-en-1-yl)-2-(1-ethyl-3-methyl-1H-pyrazol-5-yl)-8-(3-methoxypropoxy)-9H-pyrimido[4,5-b]indole-6-carboxamide], the EC50 reads like this: (Table 1, 24 hours incubation) under 200 nM; (Table 2, 24 hours incubation) under 50 nM.

For `CCn1nc(C)cc1C(=O)Nc1nc2cc(C(N)=O)cc(C)c2n1C/C=C/Cn1c2ccc(C(N)=O)cc2c2cnc(-c3cc(C)nn3CC)c(F)c21` [Example 23, (E)-5-(4-(5-carbamoyl-2-(1-ethyl-3-methyl-1H-pyrazole-5-carboxamido)-7-methyl-1H-benzo[d]imidazol-1-yl)but-2-en-1-yl)-3-(1-ethyl-3-methyl-1H-pyrazol-5-yl)-4-fluoro-5H-pyrido[4,3-b]indole-8-carboxamide], the EC50 runs as follows: (Table 1, 24 hours incubation) under 200 nM; (Table 2, 24 hours incubation) 50 to 200 nM.

With `CCn1nc(C)cc1C(=O)Nc1nc2cc(C(N)=O)cc(C)c2n1C/C=C/Cn1c2ccc(C(N)=O)cc2c2cc(F)c(-c3cc(C)nn3CC)nc21` [Example 24, (E)-9-(4-(5-carbamoyl-2-(1-ethyl-3-methyl-1H-pyrazole-5-carboxamido)-7-methyl-1H-benzo[d]imidazol-1-yl)but-2-en-1-yl)-2-(1-ethyl-3-methyl-1H-pyrazol-5-yl)-3-fluoro-9H-pyrido[2,3-b]indole-6-carboxamide], the half-maximal effective concentration (EC50) is under 200 nM (Table 1, 24 hours incubation) and under 50 nM (Table 2, 24 hours incubation).

The compound `CCn1nc(C)cc1C(=O)Nc1nc2cc(C(N)=O)cc(C)c2n1C/C=C/Cn1c2ccc(C(N)=O)cc2c2cc(C#N)c(-c3cc(C)nn3CC)nc21` [Example 25, (E)-9-(4-(5-carbamoyl-2-(1-ethyl-3-methyl-1H-pyrazole-5-carboxamido)-7-methyl-1H-benzo[d]imidazol-1-yl)but-2-en-1-yl)-3-cyano-2-(1-ethyl-3-methyl-1H-pyrazol-5-yl)-9H-pyrido[2,3-b]indole-6-carboxamide] came in with an EC50 (Table 1, 24 hours incubation) of under 1000 nM and a half-maximal effective concentration (EC50) (Table 2, 24 hours incubation) of 200 to 500 nM.

For the compound `CCn1nc(C)cc1C(=O)Nc1nc2cc(C(N)=O)cc(C)c2n1C/C=C/Cn1c2ccc(C(N)=O)cc2c2cnc(-c3cc(C)nn3CC)c(C#N)c21` [Example 26, (E)-5-(4-(5-carbamoyl-2-(1-ethyl-3-methyl-1H-pyrazole-5-carboxamido)-7-methyl-1H-benzo[d]imidazol-1-yl)but-2-en-1-yl)-4-cyano-3-(1-ethyl-3-methyl-1H-pyrazol-5-yl)-5H-pyrido[4,3-b]indole-8-carboxamide], the concentration giving a half-maximal response (EC50) by setting is: (Table 1, 24 hours incubation) under 1000 nM; (Table 2, 24 hours incubation) 500 to 1000 nM.

With `CCn1nc(C)cc1C(=O)Nc1nc2cc(C(N)=O)cc(OCCCN3CCOCC3)c2n1C/C=C/Cn1c2nc(-c3cc(C)nn3CC)ncc2c2cc(C(N)=O)cc(OCCCOC)c21` [Example 27, (E)-9-(4-(5-carbamoyl-2-(1-ethyl-3-methyl-1H-pyrazole-5-carboxamido)-7-(3-morpholinopropoxy)-1H-benzo[d]imidazol-1-yl)but-2-en-1-yl)-2-(1-ethyl-3-methyl-1H-pyrazol-5-yl)-8-(3-methoxypropoxy)-9H-pyrimido[4,5-b]indole-6-carboxamide], the half-maximal effective concentration (EC50) is, setting by setting: (Table 1, 24 hours incubation) under 200 nM; (Table 2, 24 hours incubation) under 50 nM.

`CCn1nc(C)cc1C(=O)Nc1nc2cc(C(N)=O)cc(O)c2n1C/C=C/Cn1c2nc(-c3cc(C)nn3CC)ncc2c2cc(C(N)=O)cc(OCCCOC)c21` [Example 28, (E)-9-(4-(5-carbamoyl-2-(1-ethyl-3-methyl-1H-pyrazole-5-carboxamido)-7-hydroxy-1H-benzo[d]imidazol-1-yl)but-2-en-1-yl)-2-(1-ethyl-3-methyl-1H-pyrazol-5-yl)-8-(3-methoxypropoxy)-9H-pyrimido[4,5-b]indole-6-carboxamide] gave a concentration for a half-maximal effect (EC50) (Table 1, 24 hours incubation) of under 200 nM and a concentration giving a half-maximal response (EC50) (Table 2, 24 hours incubation) of under 50 nM.

With `CCn1nc(C)cc1C(=O)Nc1nc2cc(C(N)=O)cc(OCCCC#N)c2n1C/C=C/Cn1c2nc(-c3cc(C)nn3CC)ncc2c2cc(C(N)=O)cc(OCCCOC)c21` [Example 29, (E)-9-(4-(5-carbamoyl-7-(3-cyanopropoxy)-2-(1-ethyl-3-methyl-1H-pyrazole-5-carboxamido)-1H-benzo[d]imidazol-1-yl)but-2-en-1-yl)-2-(1-ethyl-3-methyl-1H-pyrazol-5-yl)-8-(3-methoxypropoxy)-9H-pyrimido[4,5-b]indole-6-carboxamide], the EC50 (Table 2, 24 hours incubation) is under 50 nM.

Regarding `CCn1nc(C)cc1C(=O)Nc1nc2cc(C(N)=O)cc(OC(C)C)c2n1C/C=C/Cn1c2nc(-c3cc(C)nn3CC)ncc2c2cc(C(N)=O)cc(OCCCOC)c21` [Example 30, (E)-9-(4-(5-carbamoyl-2-(1-ethyl-3-methyl-1H-pyrazole-5-carboxamido)-7-isopropoxy-1H-benzo[d]imidazol-1-yl)but-2-en-1-yl)-2-(1-ethyl-3-methyl-1H-pyrazol-5-yl)-8-(3-methoxypropoxy)-9H-pyrimido[4,5-b]indole-6-carboxamide], the concentration giving a half-maximal response (EC50) (Table 2, 24 hours incubation) lay in the range of 50 to 200 nM.

Where the note is “Table 2, 24 hours incubation”, `CCn1nc(C)cc1C(=O)Nc1nc2cc(C(N)=O)cc(OCCCN3CCN(C)CC3)c2n1C/C=C/Cn1c2nc(-c3cc(C)nn3CC)ncc2c2cc(C(N)=O)cc(OCCCOC)c21` [Example 31, (E)-9-(4-(5-carbamoyl-2-(1-ethyl-3-methyl-1H-pyrazole-5-carboxamido)-7-(3-(4-methylpiperazin-1-yl)propoxy)-1H-benzo[d]imidazol-1-yl)but-2-en-1-yl)-2-(1-ethyl-3-methyl-1H-pyrazol-5-yl)-8-(3-methoxypropoxy)-9H-pyrimido[4,5-b]indole-6-carboxamide] displayed a 50% effective concentration (EC50) of 50 to 200 nM.

As to `CCn1nc(C)cc1C(=O)Nc1nc2cc(C(N)=O)cc(OCCCO)c2n1C/C=C/Cn1c2ccc(C(N)=O)cc2c2cc(F)c(-c3cc(C)nn3CC)nc21` [Example 32, (E)-9-(4-(5-carbamoyl-2-(1-ethyl-3-methyl-1H-pyrazole-5-carboxamido)-7-(3-hydroxypropoxy)-1H-benzo[d]imidazol-1-yl)but-2-en-1-yl)-2-(1-ethyl-3-methyl-1H-pyrazol-5-yl)-3-fluoro-9H-pyrido[2,3-b]indole-6-carboxamide], the half-maximal effective concentration (EC50) (Table 2, 24 hours incubation) was under 50 nM.

In the case of `CCn1nc(C)cc1C(=O)Nc1nc2cc(C(N)=O)cc(OCCCN)c2n1C/C=C/Cn1c2nc(-c3cc(C)nn3CC)ncc2c2cc(C(N)=O)cc(OCCCOC)c21` [Example 33, (E)-9-(4-(7-(3-aminopropoxy)-5-carbamoyl-2-(1-ethyl-3-methyl-1H-pyrazole-5-carboxamido)-1H-benzo[d]imidazol-1-yl)but-2-en-1-yl)-2-(1-ethyl-3-methyl-1H-pyrazol-5-yl)-8-(3-methoxypropoxy)-9H-pyrimido[4,5-b]indole-6-carboxamide], the half-maximal effective concentration (EC50) (Table 2, 24 hours incubation) is 500 to 1000 nM.
